Assay results reported in PMC3358478 (Chemical Research in Toxicology, 2012).
Entries after “also recorded” stand apart in the source; their conditions may differ.

Columns and labels:
Human P450 1A1 = target: T1, Human P450 1A1 (Homo sapiens, UniProt P04798); experiment: Ethoxyresorufin O-deethylation; type: biochemical; conditions: for kinact: read-out: limiting Kinact on P450 1A1
T1 sequence (P04798 1-512): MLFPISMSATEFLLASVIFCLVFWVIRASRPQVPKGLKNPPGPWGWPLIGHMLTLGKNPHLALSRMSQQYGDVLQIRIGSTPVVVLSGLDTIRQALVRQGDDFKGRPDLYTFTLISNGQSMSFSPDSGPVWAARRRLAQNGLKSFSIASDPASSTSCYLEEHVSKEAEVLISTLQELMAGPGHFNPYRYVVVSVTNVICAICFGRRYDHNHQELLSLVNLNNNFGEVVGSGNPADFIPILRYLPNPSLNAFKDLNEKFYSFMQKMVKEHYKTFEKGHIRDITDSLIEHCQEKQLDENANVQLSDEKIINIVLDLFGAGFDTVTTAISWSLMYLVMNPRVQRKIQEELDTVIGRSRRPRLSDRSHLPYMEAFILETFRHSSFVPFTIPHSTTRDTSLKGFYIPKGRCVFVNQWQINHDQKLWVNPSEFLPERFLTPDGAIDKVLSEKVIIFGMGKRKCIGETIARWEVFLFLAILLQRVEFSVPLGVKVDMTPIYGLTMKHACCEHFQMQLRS

Human P450 1A2 = target: T2, Human P450 1A2 (Homo sapiens, UniProt P05177); experiment: Methoxyresorufin O-demethylation; type: biochemical; conditions: for difference in the IC50 values, more effective on P450 1A2 than P450 1A1: IC50 1A1 vs 1A2; for inhibition behavior toward P450 1A2: concentration- and NADPH-dependence
T2 sequence (P05177 1-516): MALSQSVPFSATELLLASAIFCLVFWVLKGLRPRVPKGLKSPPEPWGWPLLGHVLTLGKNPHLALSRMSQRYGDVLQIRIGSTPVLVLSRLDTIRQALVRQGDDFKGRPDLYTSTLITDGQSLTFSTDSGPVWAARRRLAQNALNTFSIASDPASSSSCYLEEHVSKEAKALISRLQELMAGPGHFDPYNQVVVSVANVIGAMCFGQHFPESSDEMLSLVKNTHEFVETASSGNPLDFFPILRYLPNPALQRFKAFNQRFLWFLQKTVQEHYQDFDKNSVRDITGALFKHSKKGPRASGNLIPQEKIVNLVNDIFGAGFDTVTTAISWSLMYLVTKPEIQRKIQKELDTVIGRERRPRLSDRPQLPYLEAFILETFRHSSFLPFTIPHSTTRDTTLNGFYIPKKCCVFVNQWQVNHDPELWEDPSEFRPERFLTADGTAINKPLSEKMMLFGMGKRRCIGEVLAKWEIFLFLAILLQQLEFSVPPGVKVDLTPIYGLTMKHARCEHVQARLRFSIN

rat P450 2B1 = target: T3, rat P450 2B1 (Rattus norvegicus, UniProt P00176); experiment: Pentoxyresorufin O-depentylation; type: biochemical; conditions: for inhibition behavior toward P450 2B1: time-dependence
T3 sequence (P00176 1-491): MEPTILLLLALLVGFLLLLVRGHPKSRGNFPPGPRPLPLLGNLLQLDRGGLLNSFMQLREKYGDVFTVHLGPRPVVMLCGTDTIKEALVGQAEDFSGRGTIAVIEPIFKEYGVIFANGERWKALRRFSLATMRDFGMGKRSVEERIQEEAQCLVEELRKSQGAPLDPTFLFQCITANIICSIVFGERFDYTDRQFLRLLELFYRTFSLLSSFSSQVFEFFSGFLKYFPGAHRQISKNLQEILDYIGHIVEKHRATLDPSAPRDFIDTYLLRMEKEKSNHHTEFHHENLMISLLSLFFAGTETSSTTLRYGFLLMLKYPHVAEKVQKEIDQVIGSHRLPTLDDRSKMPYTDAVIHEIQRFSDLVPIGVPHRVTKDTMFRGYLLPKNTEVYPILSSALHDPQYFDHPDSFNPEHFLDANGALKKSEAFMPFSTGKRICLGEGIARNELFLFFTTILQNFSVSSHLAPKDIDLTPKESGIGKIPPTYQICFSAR

Human P450 2A6 = target: T4, Human P450 2A6 (Homo sapiens, UniProt P11509); experiment: Coumarin 7-hydroxylation assay, P450 2A6 inhibition
T4 sequence (P11509 1-494): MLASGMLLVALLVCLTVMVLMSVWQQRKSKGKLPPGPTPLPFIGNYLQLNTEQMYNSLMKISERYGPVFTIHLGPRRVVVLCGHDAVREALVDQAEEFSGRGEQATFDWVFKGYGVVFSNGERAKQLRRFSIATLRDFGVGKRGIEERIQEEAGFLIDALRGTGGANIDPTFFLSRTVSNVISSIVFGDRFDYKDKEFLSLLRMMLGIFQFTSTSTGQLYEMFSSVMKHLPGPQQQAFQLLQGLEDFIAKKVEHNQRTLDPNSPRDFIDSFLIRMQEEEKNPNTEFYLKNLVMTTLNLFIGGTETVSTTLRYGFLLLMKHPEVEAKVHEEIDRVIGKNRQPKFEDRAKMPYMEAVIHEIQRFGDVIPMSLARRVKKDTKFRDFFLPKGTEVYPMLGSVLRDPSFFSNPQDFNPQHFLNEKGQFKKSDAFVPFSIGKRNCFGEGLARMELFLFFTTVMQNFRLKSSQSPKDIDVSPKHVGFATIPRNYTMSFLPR

| Ki (Human P450 1A1) [µM] | kinact (Human P450 1A1) [s⁻¹] | Ki (Human P450 1A2) [µM] | IC50 (Human P450 2A6) [µM] | difference in the IC50 values, more effective on P450 1A2 than P450 1A1 (Human P450 1A2) | potency toward P450 1A1 relative to P450 1A2 (Human P450 1A1; IC50 1A2 vs 1A1) | inhibition activity for P450 2A6 (Human P450 2A6; at the dose of 50 μM) | Structure (SMILES) | IC50 (rat P450 2B1) [µM] | inhibition behavior toward P450 1A2 (Human P450 1A2) | kinact (rat P450 2B1; read-out: limiting Kinact on P450 2B1) [s⁻¹] | inhibition behavior toward P450 2B1 (rat P450 2B1) | inhibition behavior toward P450 1A1 (Human P450 1A1; time-, concentration- and NADPH-dependence) | inhibition activity for P450 2B1 (rat P450 2B1; at the dose of 50 μM) |
| --- | --- | --- | --- | --- | --- | --- | --- | --- | --- | --- | --- | --- | --- |
| 104 | 0.00567 | 78.9 | > 50 | – | – | – | C#Cc1cc2oc(=O)ccc2cc1OC [7E6MOC, 7-Ethynyl-6-methoxycoumarin] | > 50 | – | – | – | – | – |
| 38.6 | 0.0035 | 2.65 | > 50 | around 5 fold | – | – | C#Cc1ccc2c(C)cc(=O)oc2c1 [7E4MC, 7-Ethynyl-4-methylcoumarin] | > 50 | – | – | – | – | – |
| 3.58 | 0.00617 | – | > 50 | – | – | – | C#Cc1ccc2c(-c3ccccc3)c(C)c(=O)oc2c1 [7E3M4PC, 7-Ethynyl-3-methyl-4-phenylcoumarin] | 9.16 | does not show a time-dependent loss of enzymatic activity; also recorded: sole competitive inhibitor; also recorded: does not show time- and NADPH-dependent inhibition; also recorded: completely competitive | 0.00483 | sole mechanism-based inhibitor | – | – |
| 5.16 | 0.00517 | 0.83 | > 50 | – | – | – | C#Cc1ccc2c(C)c(-c3ccccc3)c(=O)oc2c1 [7E4M3PC, 7-Ethynyl-4-methyl-3-phenylcoumarin] | > 50 | – | – | – | – | – |
| 0.38 | 0.00417 | 0.65 | > 50 | – | about five times more potent | – | C#Cc1ccc2cc(-c3ccccc3)c(=O)oc2c1 [7E3PC, 7-Ethynyl-3-phenylcoumarin] | > 50 | mainly results from competitive inhibition and not from mechanism-based inhibition | – | – | – | – |
| 16.8 | 0.00383 | 3.15 | > 50 | around 5 fold | – | – | C#Cc1ccc2c(C(F)(F)F)cc(=O)oc2c1 [7E4TFC, 7-Ethynyl-4-(trifluoromethyl)coumarin] | 15.1 | – | – | competitive inhibitor | – | – |
| 0.57 | 0.00567 | 0.87 | > 50 | – | – | did not show any inhibition activity | C#Cc1ccc2c(C)c(C)c(=O)oc2c1C [7ETMC, 7-Ethynyl-3,4,8-trimethylcoumarin] | > 50 | – | – | – | time-dependent inhibition; also recorded: NADPH-dependent manner | did not show any inhibition activity |
| – | – | 5.83 | > 50 | – | – | – | C#Cc1ccc2ccc(=O)oc2c1 [7EC, 7-Ethynylcoumarin] | > 50 | – | – | – | – | – |
